Results published in US10597388B2, “Pyridazinone herbicides” (FMC CORPORATION, priority 2014, dated 2020).

Key:
Assay in all cases: Test E greenhouse herbicide test, pre- and postemergence
Assay type in all cases: in vivo
[1] = tested on: velvetleaf (Abutilon theophrasti); conditions: Preemergence
Summary of the method: (§1)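 Seedlings reaching 2–18 cm (1- to 4-leaf stage) received foliar treatment, while seeds in silt loam received a soil surface spray; the vehicle in each case was a non-phytotoxic solvent mixture including surfactant. Visual scoring versus controls followed 14–21 d later on a 0–100 scale.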

[2] = tested on: pigweed, palmer (palmer pigweed, Amaranthus palmeri)
Summary of the method: as §1

[3] = tested on: surinam grass (Brachiaria decumbens); conditions: Preemergence
Summary of the method: as §1

[4] = tested on: johnsongrass (Sorghum halepense); conditions: Preemergence
Summary of the method: as §1

[5] = tested on: waterhemp (common waterhemp, Amaranthus rudis)
Summary of the method: as §1

[6] = tested on: beggarticks (hairy beggarticks, Bidens pilosa)
Summary of the method: as §1

[7] = tested on: crabgrass, large (large crabgrass, Digitaria sanguinalis); conditions: Preemergence
Summary of the method: as §1

[8] = tested on: lambsquarters (Chenopodium album); conditions: Preemergence
Summary of the method: as §1

[9] = tested on: nightshade (eastern black nightshade, Solanum ptycanthum); conditions: Preemergence
Summary of the method: as §1

kochia (Kochia scoparia) = tested on: kochia (Kochia scoparia)
Summary of the method: as §1

[10] = tested on: field bindweed (Convolvulus arvensis)
Summary of the method: as §1

[11] = tested on: foxtail, giant (giant foxtail, Setaria faberii); conditions: Preemergence
Summary of the method: as §1

[12] = 62 g ai/ha, scale 0 to 100 (0 no effect, 100 complete control)
[13] = 125 g ai/ha, scale 0 to 100 (0 no effect, 100 complete control)
[14] = 31 g ai/ha, scale 0 to 100, 0 no effect, 100 complete control
[15] = 250 g ai/ha, visual, scale 0 no effect to 100 complete control
[16] = 62 g ai/ha, Postemergence, scale 0 to 100 (0 no effect, 100 complete control)
[17] = 62 g ai/ha, Preemergence, scale 0 to 100 (0 no effect, 100 complete control)
[18] = 125 g ai/ha, Postemergence, scale 0 to 100 (0 no effect, 100 complete control)
[19] = 125 g ai/ha, Preemergence, scale 0 to 100 (0 no effect, 100 complete control)
[20] = 250 g ai/ha, Postemergence, scale 0 to 100 (0 no effect, 100 complete control)
[21] = Postemergence, 31 g ai/ha, visual, scale 0 no effect to 100 complete control
[22] = Preemergence, 31 g ai/ha, scale 0 to 100, 0 no effect, 100 complete control
[23] = Preemergence, 250 g ai/ha, visual, scale 0 no effect to 100 complete control
[24] = 125 g ai/ha, visual, scale 0 no effect to 100 complete control
[25] = Preemergence, 125 g ai/ha, visual, scale 0 no effect to 100 complete control

## Cc1nn(C)c(=O)c(-c2ccc(F)c3ccccc23)c1O [Compound 41]
[1]; [12]
  Plant response rating, Velvetleaf: 85
[1]; [13]
  Plant response rating, Velvetleaf: 95
[1]; [14]
  Plant response rating, Velvetleaf: 20
[1]; [15]
  Plant response rating, Velvetleaf: 100
[2]; [16]
  Plant response rating, Pigweed, Palmer: 60
[2]; [17]
  Plant response rating, Pigweed, Palmer: 85
[2]; [18]
  Plant response rating, Pigweed, Palmer: 90
[2]; [19]
  Plant response rating, Pigweed, Palmer: 75
[2]; [20]
  Plant response rating, Pigweed, Palmer: 95
[2]; [21]
  Plant response rating, Pigweed, Palmer: 50
[2]; [22]
  Plant response rating, Pigweed, Palmer: 15
[2]; [23]
  Plant response rating, Pigweed, Palmer: 85
[3]; [12]
  Plant response rating, Surinam Grass: 75
[3]; [13]
  Plant response rating, Surinam Grass: 75
[3]; [14]
  Plant response rating, Surinam Grass: 10
[3]; [15]
  Plant response rating, Surinam Grass: 95
[4]; [12]
  Plant response rating, Johnsongrass: 0
[4]; [14]
  Plant response rating, Johnsongrass: 0
[4]; [24]
  Plant response rating, Johnsongrass: 0
[4]; [15]
  Plant response rating, Johnsongrass: 25
[5]; [16]
  Plant response rating, Waterhemp: 85
[5]; [17]
  Plant response rating, Waterhemp: 98
[5]; [18]
  Plant response rating, Waterhemp: 90
[5]; [19]
  Plant response rating, Waterhemp: 100
[5]; [20]
  Plant response rating, Waterhemp: 85
[5]; [21]
  Plant response rating, Waterhemp: 75
[5]; [22]
  Plant response rating, Waterhemp: 75
[5]; [23]
  Plant response rating, Waterhemp: 100
[6]; [16]
  Plant response rating, Beggarticks: 95
[6]; [17]
  Plant response rating, Beggarticks: 98
[6]; [18]
  Plant response rating, Beggarticks: 95
[6]; [20]
  Plant response rating, Beggarticks: 100
[6]; [21]
  Plant response rating, Beggarticks: 100
[6]; [22]
  Plant response rating, Beggarticks: 65
[6]; [25]
  Plant response rating, Beggarticks: 100
[6]; [23]
  Plant response rating, Beggarticks: 100
[7]; [12]
  Plant response rating, Crabgrass, Large: 70
[7]; [14]
  Plant response rating, Crabgrass, Large: 65
[7]; [24]
  Plant response rating, Crabgrass, Large: 80
[7]; [15]
  Plant response rating, Crabgrass, Large: 60
[8]; [12]
  Plant response rating, Lambsquarters: 100
[8]; [14]
  Plant response rating, Lambsquarters: 35
[8]; [24]
  Plant response rating, Lambsquarters: 100
[8]; [15]
  Plant response rating, Lambsquarters: 100
[9]; [12]
  Plant response rating, Nightshade: 80
[9]; [13]
  Plant response rating, Nightshade: 98
[9]; [14]
  Plant response rating, Nightshade: 25
[9]; [15]
  Plant response rating, Nightshade: 98
Kochia (Kochia scoparia); [16]
  Plant response rating, Kochia: 95
Kochia (Kochia scoparia); [17]
  Plant response rating, Kochia: 90
Kochia (Kochia scoparia); [18]
  Plant response rating, Kochia: 95
Kochia (Kochia scoparia); [20]
  Plant response rating, Kochia: 95
Kochia (Kochia scoparia); [21]
  Plant response rating, Kochia: 90
Kochia (Kochia scoparia); [22]
  Plant response rating, Kochia: 90
Kochia (Kochia scoparia); [25]
  Plant response rating, Kochia: 100
Kochia (Kochia scoparia); [23]
  Plant response rating, Kochia: 100
[10]; [16]
  Plant response rating, Field Bindweed: 90
[10]; [17]
  Plant response rating, Field Bindweed: 70
[10]; [18]
  Plant response rating, Field Bindweed: 85
[10]; [20]
  Plant response rating, Field Bindweed: 95
[10]; [21]
  Plant response rating, Field Bindweed: 80
[10]; [22]
  Plant response rating, Field Bindweed: 30
[10]; [25]
  Plant response rating, Field Bindweed: 75
[10]; [23]
  Plant response rating, Field Bindweed: 90
[11]; [12]
  Plant response rating, Foxtail, Giant: 65
[11]; [14]
  Plant response rating, Foxtail, Giant: 30
[11]; [24]
  Plant response rating, Foxtail, Giant: 70
[11]; [15]
  Plant response rating, Foxtail, Giant: 90

## Cc1ccc2ccccc2c1-c1c(O)c(I)nn(C)c1=O [Compound 29]
[1]; [12]
  Plant response rating, Velvetleaf: 95
[1]; [13]
  Plant response rating, Velvetleaf: 100
[1]; [14]
  Plant response rating, Velvetleaf: 70
[1]; [15]
  Plant response rating, Velvetleaf: 100
[2]; [17]
  Plant response rating, Pigweed, Palmer: 70
[2]; [19]
  Plant response rating, Pigweed, Palmer: 100
[2]; [22]
  Plant response rating, Pigweed, Palmer: 90
[2]; [23]
  Plant response rating, Pigweed, Palmer: 100
[3]; [12]
  Plant response rating, Surinam Grass: 95
[3]; [13]
  Plant response rating, Surinam Grass: 95
[3]; [14]
  Plant response rating, Surinam Grass: 75
[3]; [15]
  Plant response rating, Surinam Grass: 100
[4]; [12]
  Plant response rating, Johnsongrass: 70
[4]; [14]
  Plant response rating, Johnsongrass: 70
[4]; [24]
  Plant response rating, Johnsongrass: 65
[4]; [15]
  Plant response rating, Johnsongrass: 100
[5]; [17]
  Plant response rating, Waterhemp: 90
[5]; [19]
  Plant response rating, Waterhemp: 98
[5]; [22]
  Plant response rating, Waterhemp: 80
[5]; [23]
  Plant response rating, Waterhemp: 100
[6]; [17]
  Plant response rating, Beggarticks: 98
[6]; [22]
  Plant response rating, Beggarticks: 80
[6]; [25]
  Plant response rating, Beggarticks: 100
[6]; [23]
  Plant response rating, Beggarticks: 100
[7]; [12]
  Plant response rating, Crabgrass, Large: 25
[7]; [14]
  Plant response rating, Crabgrass, Large: 0
[7]; [24]
  Plant response rating, Crabgrass, Large: 40
[7]; [15]
  Plant response rating, Crabgrass, Large: 65
[8]; [12]
  Plant response rating, Lambsquarters: 100
[8]; [14]
  Plant response rating, Lambsquarters: 100
[8]; [24]
  Plant response rating, Lambsquarters: 100
[8]; [15]
  Plant response rating, Lambsquarters: 98
[9]; [12]
  Plant response rating, Nightshade: 70
[9]; [13]
  Plant response rating, Nightshade: 85
[9]; [14]
  Plant response rating, Nightshade: 5
[9]; [15]
  Plant response rating, Nightshade: 90
Kochia (Kochia scoparia); [17]
  Plant response rating, Kochia: 0
Kochia (Kochia scoparia); [22]
  Plant response rating, Kochia: 0
Kochia (Kochia scoparia); [25]
  Plant response rating, Kochia: 25
Kochia (Kochia scoparia); [23]
  Plant response rating, Kochia: 70
[10]; [17]
  Plant response rating, Field Bindweed: 90
[10]; [22]
  Plant response rating, Field Bindweed: 80
[10]; [25]
  Plant response rating, Field Bindweed: 95
[10]; [23]
  Plant response rating, Field Bindweed: 98
[11]; [12]
  Plant response rating, Foxtail, Giant: 80
[11]; [14]
  Plant response rating, Foxtail, Giant: 70
[11]; [24]
  Plant response rating, Foxtail, Giant: 95
[11]; [15]
  Plant response rating, Foxtail, Giant: 98
